Assay results from PMC7167990, “Therapeutic Effects of Atranorin towards the Proliferation of Babesia and Theileria Parasites” (Pathogens, 2020).
Like-named read-outs stand apart in the source and are kept apart here. Values belong to the molecule of their own block, whether it stands above or below them.

What was measured:
[1] = Hematology parameters (HGB, HCT, RBCs) in B. microti-infected treated mice; type: in vivo, BALB/c mice; set-up: HGB Mean: unit not given beside the values; RBCs Mean: unit not given here; settings: DA 25, AV 20, ATR 25, ATR 12.5+DA 12.5, ATR 12.5+AV 10 mg/kg BW, days 4-8 p.i.
[2] = test system: HFFs; test: Cytotoxicity assay (CCK-8 cell viability); type: cell-based, human; settings: for EC50: Homo sapiens, HFFs, 24 h, CCK-8
Description: (§1) Cultures of human foreskin fibroblast (HFF; HFF-1 ATCC® SCRC-1041™), Madin–Darby bovine kidney (MDBK; ECACC) and mouse embryonic fibroblast (NIH/3T3; ATCC® CRL-1658™) cells were retrieved from −80 °C stock and cultured continuously at 37 °C under atmosphere 5% CO2 in our laboratory. The NIH/3T3 and HFFs cells were maintained in Dulbecco Modified Eagle’s Medium (DMEM; Gibco, Grand Island, NY, USA), while MDBK cell line grown in Minimum Essential Medium Eagle (MEM; Gibco). Each medium was treated with 0.5% penicillin/streptomycin (Gibco), 10% inactivated fetal bovine serum and 2 mM glutamine. Every 72 to 96 h, the medium was replaced, and once 80% confluence was reached, the cell collection was performed by sub-culture protocol. To confirm the absence of mycoplasma contamination, 4,6-diamidino-2-phenylindole dihydrochloride stain (Sigma-Aldrich) was used.
(§2) The cell viability test was conducted in a 96-well plate as described elsewhere. Briefly, an aliquot of (100 µL) cells was implanted at a concentration of 5 × 10^4 cells/mL in DMEM or MEM with fetal bovine serum and incubated overnight under atmosphere 5% CO2 at 37 °C for attachment. Using two-fold dilutions, aliquots (10 µL) of drugs were added in triplicate per well to attain final concentrations of 50 to 1000 µM and further incubated for 24 h. The positive control wells containing cells mixed with the medium in 0.4% DMSO, whereas the negative control wells containing culture medium only. After a 24-h incubation, Cell Counting Kits-8 (CCK-8, 10 µL) was added to each well and then plate incubation was conducted for an additional 3 h and a microplate reader was used to assess the absorbance at 450 nm.

[3] = test system: B. microti; settings: for peak parasitemia level: peak on day 10; for peak parasitemia level / first day on which parasitemia was not detected by microscopy: B. microti-infected BALB/c mice; for first day on which parasitemia was not detected by microscopy: DA 25, AV 20, ATR 25, ATR 12.5+DA 12.5, ATR 12.5+AV 10 mg/kg BW
[4] = test system: NIH/3T3 cells; test: Cytotoxicity assay (CCK-8 cell viability); type: cell-based, mouse; settings: for EC50: Mus musculus, read-out: EC50 NIH/3T3
Description: as §1, §2

[5] = test system: B. divergens; test: In vitro growth inhibition, Babesia fluorescent (SYBR Green I) assay; type: cell-based; settings: 96 h, 4 days culture, mean of triplicate experiments
Description: (§3) Babesia parasite was incubated and maintained at 37 °C in a humidifying chamber under 5% CO2, 5% O2, and 90% N2 atmosphere using a microaerophilic stationary-phase culture for conducting the in vitro experiment. Briefly, Germany strain Babesia divergens was cultured in cattle RBCs in Roswell Park Memorial Institute 1640 (RPMI 1640; Sigma-Aldrich, St. Louis, MO, USA) medium replenished with 40% cattle serum, while culture medium 199 (M199; Sigma-Aldrich) was utilized for the Argentina strain B. bigemina and Texas strain B. bovis, and T. equi USDA strain cultured in cattle RBCs supplemented with 40% cattle serum and horse RBCs maintained in hypoxanthine (MP Biomedicals, Santa Ana, CA, USA; final concentration 13.6 μg/mL) and 40% horse serum, respectively. GIT medium complemented with 40% horse serum was used as a growth medium for the USDA strain of B. caballi cultured in horse RBCs. To ensure free-bacterial contamination, amphotericin B (0.15 μg/mL) (Sigma-Aldrich), streptomycin (60 U/mL) and penicillin G (60 U/mL) were added to all medium.
(§4) The Babesia fluorescent assay was carried out on the in vitro culture as previously reported elsewhere to assess the growth of the inhibitory effectiveness of ATR and the combination treatment with DA, CF, and AV. Briefly, in three separate trials, using two-fold dilution, different concentrations of ATR, DA, CF, and AV were prepared in the culture medium and added in 96-well plates in triplicate with 1% parasitemia for T. equi, B. divergens and B. caballi at 5% HCT, while for B. bigemina and B. bovis using 2.5% HCT. The drug combined efficacy was conducted at the same time with the single-treatment assay in accordance with the Chou–Talalay method. […] On day four of culture, an aliquot (100 µL) of lysis buffer mixed with 0.2μL/mL SG1 was added per well; subsequently, it was covered with aluminum foil to prevent exposure to light. After incubation for 6-h at 37 °C, fluorescence readings were acquired on a spectrofluorimeter (Fluoroskan Ascent, Thermo Fisher Scientific, Oceanside, CA, USA) with a 485 nm excitation wavelength and a 518 nm emission wavelength.
(§5) The IC50 values of ATR, DA, CF, and AV were established from the in vitro growth inhibition by nonlinear regression curve fit on a GraphPad Prism (GraphPad Software Inc., San Diego, CA, USA). […] The significant variations (p < 0.05) among group mean values on parasitemia and one-way ANOVA Tukey’s test in GraphPad Prism version 5.0 was used to analyze hematology profiles in mice infected with B. microti.

[6] = test system: B. bigemina; test: as above; type: cell-based; settings: 96 h, 4 days culture, mean of triplicate experiments
Description: as §3, §4, §5

[7] = test system: T. equi; test: as above; type: cell-based; settings: 96 h, 4 days culture, mean of triplicate experiments
Description: as §3, §4, §5

[8] = test system: B. bovis; test: as above; type: cell-based; settings: Bos taurus, 96 h, 4 days culture, mean of triplicate experiments
Description: as §3, §4, §5

[9] = test system: B. caballi; test: as above; type: cell-based; settings: Babesia caballi, 96 h, 4 days culture, mean of triplicate experiments
Description: as §3, §4, §5

[10] = ATR 25 mg/kg i.p., days 4-8 p.i.
[11] = EC50 NIH/3T3 / IC50 B. bigemina
[12] = EC50 NIH/3T3 / IC50 B. divergens

Structure (SMILES): COC(=O)c1c(C)cc(OC(=O)c2c(C)cc(O)c(C=O)c2O)c(C)c1O [ATR, Atranorin]
HCT Mean ([1]; day 0): 46.575% | HGB Mean ([1]; day 0): 14.8 | RBCs Mean ([1]; day 0): 942.625 | HCT Mean ([1]; day 4): 44.4% | HGB Mean ([1]; day 4): 13.64 | RBCs Mean ([1]; day 4): 928 | HCT Mean ([1]; day 8): 38% | HGB Mean ([1]; day 8): 10 | RBCs Mean ([1]; day 8): 610 | HCT Mean ([1]; day 12): 28.925% | HGB Mean ([1]; day 12): 10.05 | RBCs Mean ([1]; day 12): 557 | HCT Mean ([1]; day 16): 36.65% | HGB Mean ([1]; day 16): 11.425 | RBCs Mean ([1]; day 16): 637.75 | HCT Mean ([1]; day 20): 39.5% | HGB Mean ([1]; day 20): 11.95 | RBCs Mean ([1]; day 20): 679.75 | HCT Mean ([1]; day 24): 40.2% | HGB Mean ([1]; day 24): 12.725 | RBCs Mean ([1]; day 24): 830 | HCT Mean ([1]; day 28): 43.2% | HGB Mean ([1]; day 28): 13.2 | RBCs Mean ([1]; day 28): 898 | HCT Mean ([1]; day 32): 45.2% | HGB Mean ([1]; day 32): 14.8 | RBCs Mean ([1]; day 32): 942.625 | HCT Mean ([1]; day 36): 47.2% | HGB Mean ([1]; day 36): 14.99 | RBCs Mean ([1]; day 36): 982.625 | Selective Index HFFs ([2]; EC50 HFFs / IC50 B. bigemina): 11.6 | Selective Index HFFs ([2]; EC50 HFFs / IC50 B. bovis): 7.6 | Selective Index HFFs ([2]; EC50 HFFs / IC50 B. caballi): 16.1 | Selective Index HFFs ([2]; EC50 HFFs / IC50 B. divergens): 16.6 | Selective Index HFFs ([2]; EC50 HFFs / IC50 T. equi): 10.6 | EC50 [2]: 750 ± 15 µM | inhibition of B. microti multiplication in mice [3, 10]: 68.17% | peak parasitemia level [3, 10]: 19.92% | first day on which parasitemia was not detected by microscopy ([3]; days 4-8 p.i.): 26 day p.i. | toxic signs in mice due to treatment ([3]; mouse, in vivo): no obvious toxic signs or promoted anemia | Selective Index NIH/3T3 [4, 11]: 9.9 | Selective Index NIH/3T3 ([4]; EC50 NIH/3T3 / IC50 B. bovis): 6.5 | Selective Index NIH/3T3 ([4]; EC50 NIH/3T3 / IC50 B. caballi): 13.7 | Selective Index NIH/3T3 [4, 12]: 14.0 | Selective Index NIH/3T3 ([4]; EC50 NIH/3T3 / IC50 T. equi): 9 | EC50 ([4]; NIH3T3, 24 h): 638 ± 12 µM | IC50 [5]: 45.2 ± 5.9 µM | IC50 [6]: 64.5 ± 3.9 µM | IC50 [7]: 71.3 ± 2.7 µM | IC50 [8]: 98.4 ± 4.2 µM | IC50 [9]: 46.6 ± 2.5 µM

IC50 [5]: 0.04 µM | IC50 [6]: 0.7 ± 0.04 µM | IC50 [7]: 0.09 ± 0.06 µM | IC50 [8]: 0.04 µM | IC50 [9]: 0.1 ± 0.01 µM
Structure (SMILES): O=C1C(O)=C([C@H]2CC[C@H](c3ccc(Cl)cc3)CC2)C(=O)c2ccccc21 [AV, atovaquone]
HCT Mean ([1]; day 0): 47.48% | HGB Mean ([1]; day 0): 14.44 | RBCs Mean ([1]; day 0): 1060.62 | HCT Mean ([1]; day 4): 45% | HGB Mean ([1]; day 4): 13.64 | RBCs Mean ([1]; day 4): 984.75 | HCT Mean ([1]; day 8): 44% | HGB Mean ([1]; day 8): 14.34 | RBCs Mean ([1]; day 8): 878 | HCT Mean ([1]; day 12): 40% | HGB Mean ([1]; day 12): 12.6 | RBCs Mean ([1]; day 12): 850 | HCT Mean ([1]; day 16): 43% | HGB Mean ([1]; day 16): 13.96 | RBCs Mean ([1]; day 16): 830.25 | HCT Mean ([1]; day 20): 45% | HGB Mean ([1]; day 20): 14.92 | RBCs Mean ([1]; day 20): 844 | HCT Mean ([1]; day 24): 46% | HGB Mean ([1]; day 24): 15.4 | RBCs Mean ([1]; day 24): 850 | HCT Mean ([1]; day 28): 48% | HGB Mean ([1]; day 28): 15.64 | RBCs Mean ([1]; day 28): 984.75 | HCT Mean ([1]; day 32): 50% | HGB Mean ([1]; day 32): 16 | RBCs Mean ([1]; day 32): 1000.62 | HCT Mean ([1]; day 36): 51% | HGB Mean ([1]; day 36): 16.44 | RBCs Mean ([1]; day 36): 1060.62 | Selective Index HFFs ([2]; EC50 HFFs / IC50 B. bigemina): ˃142.7 | Selective Index HFFs ([2]; EC50 HFFs / IC50 B. bovis): ˃2564 | Selective Index HFFs ([2]; EC50 HFFs / IC50 B. caballi): ˃980.4 | Selective Index HFFs ([2]; EC50 HFFs / IC50 B. divergens): ˃2631 | Selective Index HFFs ([2]; EC50 HFFs / IC50 T. equi): ˃1052 | EC50 [2]: > 100 µM | peak parasitemia level ([3]; AV at 20 mg/kg, days 4-8 p.i.): 10.99% | first day on which parasitemia was not detected by microscopy ([3]; days 4-8 p.i.): 18 day p.i. | Selective Index NIH/3T3 [4, 11]: ˃142.7 | Selective Index NIH/3T3 ([4]; EC50 NIH/3T3 / IC50 B. bovis): ˃2564 | Selective Index NIH/3T3 ([4]; EC50 NIH/3T3 / IC50 B. caballi): ˃980.4 | Selective Index NIH/3T3 [4, 12]: ˃2631 | Selective Index NIH/3T3 ([4]; EC50 NIH/3T3 / IC50 T. equi): ˃1052 | EC50 ([4]; NIH3T3, NIH/3T3 cells, 24 h, CCK-8): > 100 µM
